# Laboratory results: patent publication US8741940B2, “Microbicidal composition” (Rohm and Haas Company, priority 2005, dated 2014)
# Where “and” joins values, the source holds several entries; their conditions need not be identical. Equal entries are not always repeated. Where two headings read alike, the source gives them in different places.
# Experiments:
# Assay type in all cases: cell-based
# Conditions in all cases: for Qa (concentration of MBIT producing the end point, MIC): alone where Qb = 0, otherwise in the mixture
# [1] = test system: Aspergillus niger (A. niger—ATCC 16404); experiment: Synergy test, microtiter plate high resolution MIC assay, mold in PDB medium; design: Qb (Second Component B) / Qa (First Component A): unit: ppm
# Outline: (§1)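 High-resolution microtiter MICs spanned 2 to 10,000 ppm active, tested alongside varying BBIT or MBIT as component A. E. coli was run at ~5×10^6/mL in M9GY (0.2% glucose, 0.1% yeast extract) at 30 °C; C. albicans and A. niger at 5×10^5/mL in PDB. Synergy index is Qa/QA + Qb/QB, with >1 indicating antagonism.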
# [2] = test system: Escherichia coli (E. coli—ATCC #8739); experiment: Synergy test, microtiter plate high resolution MIC assay, bacterium in M9GY medium; design: Qa (First Component A) / Qb (Second Component B): unit: ppm
# Outline: as §1
# [3] = test system: Candida albicans (C. albicans—ATCC 10231); experiment: Synergy test, microtiter plate high resolution MIC assay, yeast in PDB medium; design: Qb (Second Component B) / Qa (First Component A): unit: ppm
# Outline: as §1
# [4] = A=MBIT, B=2-bromo-2-nitro-propane-1,3-diol (BNPD), A. niger 16404 - PDB, 4 days
# [5] = A=MBIT, B=BBIT, A. niger 16404 - PDB, 4 days
# [6] = A=MBIT, B=Benzalkonium chloride (Hyamine 3500), A. niger 16404 - PDB, 4 days
# [7] = A=MBIT, B=Benzisothiazolinone (BIT), A. niger 16404 - PDB, 7 days
# [8] = A=MBIT, B=Benzyl alcohol, A. niger 16404 - PDB, 4 days
# [9] = A=MBIT, B=Caprylyl glycol, A. niger 16404 - PDB, 4 days
# [10] = A=MBIT, B=Chlorphenesin, A. niger 16404 - PDB, 3 days
# [11] = A=MBIT, B=DMDM Hydantoin (DMDMH), A. niger 16404 - PDB, 3 days
# [12] = A=MBIT, B=dithio-2,2′-bis(N-methylbenzamide) (DTBMA), A. niger 16404 - PDB, 3 days
# [13] = A=MBIT, B=2-bromo-2-nitro-propane-1,3-diol (BNPD), E. coli 8739 - M9GY, 24 hours
# [14] = A=MBIT, B=BBIT, E. coli 8739 - M9GY, 24 hours
# [15] = A=MBIT, B=Benzalkonium chloride (Hyamine 3500), E. coli 8739 - M9GY, 24 hours
# [16] = A=MBIT, B=Benzisothiazolinone (BIT), E. coli 8739 - M9GY, 24 hours
# [17] = A=MBIT, B=Benzyl alcohol, E. coli 8739 - M9GY, 24 hours
# [18] = A=MBIT, B=Caprylyl glycol, E. coli 8739 - M9GY, 24 hours
# [19] = A=MBIT, B=Chlorphenesin, E. coli 8739 - M9GY, 24 hours
# [20] = A=MBIT, B=DMDM Hydantoin (DMDMH), E. coli 8739 - M9GY, 24 hours
# [21] = A=MBIT, B=dithio-2,2′-bis(N-methylbenzamide) (DTBMA), E. coli 8739 - M9GY, 24 hours
# [22] = A=MBIT, B=2-bromo-2-nitro-propane-1,3-diol (BNPD), C. albicans 10231 - PDB, 24 hours
# [23] = A=MBIT, B=BBIT, C. albicans 10231 - PDB, 48 hours
# [24] = A=MBIT, B=Benzalkonium chloride (Hyamine 3500), C. albicans 10231 - PDB, 24 hours
# [25] = A=MBIT, B=Benzisothiazolinone (BIT), C. albicans 10231 - PDB, 48 hours
# [26] = A=MBIT, B=Benzyl alcohol, C. albicans 10231 - PDB, 48 hours
# [27] = A=MBIT, B=Caprylyl glycol, C. albicans 10231 - PDB, 24 hours
# [28] = A=MBIT, B=Chlorphenesin, C. albicans 10231 - PDB, 72 hours
# [29] = A=MBIT, B=DMDM Hydantoin (DMDMH), C. albicans 10231 - PDB, 24 hours
# [30] = A=MBIT, B=dithio-2,2′-bis(N-methylbenzamide) (DTBMA), C. albicans 10231 - PDB, 24 hours
# [31] = C. albicans 10231, PDB, 24 hours
# [32] = C. albicans 10231, PDB, 48 hours
# [33] = C. albicans 10231, PDB, 72 hours
compound,measurement,setting,value
"Cn1sc2ccccc2c1=O [MBIT, N-methyl-1,2-benzisothiazolin-3-one]",Qa (First Component A),[1],30 and 40
same,Qa (concentration of First Component A = MBIT at the end point),[1],40
same,SI (synergy index),[1],1.00
same,SI (synergy index),"[1]; A. niger 16404, PDB, 3 days",1.00
same,"Qa (concentration of MBIT producing the end point, MIC)","[1]; A. niger 16404, PDB, 3 days",40 ppm and 20 ppm and 30 ppm
same,SI (synergy index),"[1]; A. niger 16404, PDB, 4 days",1.00
same,"Qa (concentration of MBIT producing the end point, MIC)","[1]; A. niger 16404, PDB, 4 days",30 ppm and 40 ppm
same,SI (synergy index),"[1]; A. niger 16404, PDB, 7 days",1.00
same,"Qa (concentration of MBIT producing the end point, MIC)","[1]; A. niger 16404, PDB, 7 days",50 ppm and 60 ppm
same,Qa (First Component A),[1]; [4],30
same,SI (synergy index),[1]; [4],1.00
same,Qa (First Component A),[1]; [5],40
same,SI (synergy index),[1]; [5],1.00
same,Qa (First Component A),[1]; [6],30
same,SI (synergy index),[1]; [6],1.00
same,Qa (First Component A),[1]; [7],50
same,SI (synergy index),[1]; [7],1.00
same,Qa (First Component A),[1]; [8],50
same,SI (synergy index),[1]; [8],1.00
same,Qa (First Component A),[1]; [9],20
same,SI (synergy index),[1]; [9],1.00
same,Qa (First Component A),[1]; [10],20
same,SI (synergy index),[1]; [10],1.00
same,Qa (First Component A),[1]; [11],40
same,SI (synergy index),[1]; [11],1.00
same,Qa (First Component A),[1]; [12],30
same,SI (synergy index),[1]; [12],1.00
same,Qa (First Component A),[2],10 and 7.5
same,Qa (concentration of First Component A = MBIT at the end point),[2],10
same,SI (synergy index),[2],1.00
same,Qa (First Component A),[2]; [13],10
same,SI (synergy index),[2]; [13],1.00
same,Qa (First Component A),[2]; [14],10
same,SI (synergy index),[2]; [14],1.00
same,Qa (First Component A),[2]; [15],100
same,SI (synergy index),[2]; [15],1.00
same,Qa (First Component A),[2]; [16],10
same,SI (synergy index),[2]; [16],1.00
same,Qa (First Component A),[2]; [17],10
same,SI (synergy index),[2]; [17],1.00
same,Qa (First Component A),[2]; [18],10
same,SI (synergy index),[2]; [18],1.00
same,Qa (First Component A),[2]; [19],15
same,SI (synergy index),[2]; [19],1.00
same,Qa (First Component A),[2]; [20],10
same,SI (synergy index),[2]; [20],1.00
same,Qa (First Component A),[2]; [21],15
same,SI (synergy index),[2]; [21],1.00
same,SI (synergy index),"[2]; E. coli 8739, M9GY, 24 hours",1.00
same,"Qa (concentration of MBIT producing the end point, MIC)","[2]; E. coli 8739, M9GY, 24 hours",10 ppm and 15 ppm
same,SI (synergy index),"[2]; E. coli 8739, M9GY, 48 hours",1.00
same,"Qa (concentration of MBIT producing the end point, MIC)","[2]; E. coli 8739, M9GY, 48 hours",20 ppm and 15 ppm
same,SI (synergy index),"[2]; E. coli 8739, M9GY, 72 hours",1.00
same,"Qa (concentration of MBIT producing the end point, MIC)","[2]; E. coli 8739, M9GY, 72 hours",15 ppm
same,Qa (First Component A),[3],8 and 10
same,Qa (concentration of First Component A = MBIT at the end point),[3],7.5
same,SI (synergy index),[3],1.00
same,Qa (First Component A),[3]; [22],8
same,SI (synergy index),[3]; [22],1.00
same,Qa (First Component A),[3]; [23],10
same,SI (synergy index),[3]; [23],1.00
same,Qa (First Component A),[3]; [24],8
same,SI (synergy index),[3]; [24],1.00
same,Qa (First Component A),[3]; [25],10
same,SI (synergy index),[3]; [25],1.00
same,Qa (First Component A),[3]; [26],10
same,SI (synergy index),[3]; [26],1.00
same,Qa (First Component A),[3]; [27],10
same,SI (synergy index),[3]; [27],1.00
same,Qa (First Component A),[3]; [28],10
same,SI (synergy index),[3]; [28],1.00
same,Qa (First Component A),[3]; [29],7.5
same,SI (synergy index),[3]; [29],1.00
same,Qa (First Component A),[3]; [30],10
same,SI (synergy index),[3]; [30],1.00
same,SI (synergy index),[3]; [31],1.00
same,"Qa (concentration of MBIT producing the end point, MIC)",[3]; [31],7.5 ppm and 10 ppm and 15 ppm and 8 ppm
same,SI (synergy index),[3]; [32],1.00
same,"Qa (concentration of MBIT producing the end point, MIC)",[3]; [32],7.5 ppm and 10 ppm
same,SI (synergy index),[3]; [33],1.00
same,"Qa (concentration of MBIT producing the end point, MIC)",[3]; [33],15 ppm
